The values that follow come from patent US20080255121A1, “Combination Drug for Treating Autoimmune Disease” (DAINIPPON SUMITOMO PHARMA CO., LTD., priority 2004, published 2008).

One assay addresses T1, CaMKIIα derived from rat (Rattus norvegicus, UniProt P11275).
T1 construct: purchased Santa Cruz, Inc
In words: Examination of CaMKII inhibitory activity (1), phosphorylation of Autocamtide-2. It counts as biochemical. Here is the method: (§1) Test substances were dissolved in DMSO and diluted to various concentrations with a buffer solution (50 mM Tris-HCl: pH 7.5, 10 mM MgCl2, 1 mM Dithiothreitol (DTT)) (all of them are available from Nacalai Tesque, Inc.) for CaMKII reaction. CaMKIIα (final concentration 0.75 μg/ml) (Santa Cruz, Inc.) derived from rat was mixed with Autocamtide-2® (40 μM) (CALBIOCHEM Company) dissolved in CaMKII reaction buffer solution in the presence of the test substance and with CaMKII activation buffer solution (1 mMCaCl2, 1 μM calmodulin) (Nacalai Tesque, Inc.) and the reaction was started by further adding ATP (50 μM) (Nacalai Tesque, Inc.). The reaction was performed at 30° C. for five minutes and then SDS-PAGE sample buffer solution was added and the reaction was terminated by boiling for five minutes. Proteins in the reaction mixture were separated by 15% SDS-PAGE and blotted onto a PVDF membrane. Phosphorus taken in by Autocamtide-2 was reacted with an anti-phosphorylated serine/threonine antibody (Santa Cruz, Inc.) and quantified by ECL system (Amersham, Inc.) and NIH Image (downloadable from http://rsb.info.nih.gov/nih-image/).

The next assay deals with L929 cells. Description: Proliferation of fibroblasts stimulated with bFGF (Brd-U uptake). It counts as cell-based, mouse. Particulars: Compound (I) 0.3 to 10 μM, KN-93 1 to 30 μM; FIG. 3. The procedure: Effects of Compound (I) and KN-93 on the proliferation of fibroblasts when the fibroblasts were stimulated with basic fibroblast growth factor (bFGF) were evaluated.
L929 cells (mouse fibroblast cell line) were cultured in MEM-Earl medium (E-MEM: GIBCO, Inc.) containing 10% fetal bovine serum and subjected to the experiment. The cells were suspended in a serum-free E-MEM and disseminated in 96-well plate in a ratio of 2×10^4 cells/well and incubated for 72 hours. An E-MEM medium containing the test substance was added and incubated for 1 hour, and an E-MEM medium containing recombinant human FGF basic (bFGF) as a stimulant was added and incubated for 20 hours. 5-Bromo2′-deoxyuridine (Brd-U) solution was added to each well and incubated at 37° C. for further four hours. The cells were fixed and uptake of Brd-U was detected by Cell proliferation ELISA system (Amersham) and absorbance at 450 nm was measured with a microplate reader. This value of absorbance was used as an index of cell proliferation.

The next assay has as its system IκBα. Description: Degradation of IκBα in stimulated T-lymphocytes (Western blotting). It counts as cell-based, mouse. Particulars: Compound (I) 30 μM, KN-93 10 μM; EL-4 cells; FIG. 17. Here is the method:
Effects of Compound (I) and KN-93 on the degradation of IκBα when T-lymphocytes were stimulated with Phorbol 12-myristate 13-acetate (PMA) and Calcium Ionophore A23187 were evaluated.
EL-4 cells (mouse T-lymphocyte cell line) were cultured in Dulbecco's Modified Eagle Medium (DMEM: GIBCO, Inc.) containing 10% fetal bovine serum and subjected to the experiments. Cells subconfluently multiplied were collected by centrifugation and dispensed into Eppendorf tubes to be contained at 5×10^6 cells/tube. After Compound (I) (final 30 μM) or KN-93 (final 10 μM) was added and preincubated at 37° C. in a water bath, stimulation by PMA (final 125 ng/ml) and A23187 (final 1 μg/ml) was performed (total volume 500 μl). After incubated for 15 minutes or 30 minutes after the stimulation, 1 ml of an ice cold stop solution (1×PBS, 1 mM Na3VO4, 5 mM EDTA) was added to terminate the reaction. After centrifugation and rinsing, it was dissolved in TNE buffer (50 mMTris-HCl, 1% NP-40, 20 mM EDTA, 100 μg/ml PMSF, 30 μl/ml Aprotinin, 1 mM Na3VO4, 5 mM NaF, 12 mM β-glycerophosphate). After performing 12% SDS-PAGE, proteins were transferred onto a PVDF membrane and western blotting was performed with anti-IκBα antibody (C-21, Santa Cruz, Inc.).

Another assay relates to human CaMKII γ. In words: Examination of CaMKII inhibitory activity (2). It counts as biochemical. The procedure: as §1
CaMKII γ gene was prepared by PCR method using two kinds of primers (5′-TC GGATCCAGCATGGCCACCACCGCCACCTG-3′ [SEQ ID NO 4] and 5′-TA GAATTCACACTGCAGCGGTGCGGCAGG [SEQ ID NO 5]) synthesized based on the sequence of GenBank Accession No. L07044 and cDNA derived from cultured cells (JurketT cells) prepared by a conventional method as a template. The CaMKII γ gene was excised by BamHI and EcoRI and introduced into the MCS of pFastBacl transfer vector. Expression virus was prepared and amplified based on this vector. The details followed the manual of Bac-to-Bac baculovirus expression system (Invitrogen, Inc.). Expressed CaMKII γ was purified in accordance with the method described in literature (Biochemical & Biophysical Research Communications, 173(2): 578-84, 1990). That is, expression cells were pulverized by supersonic wave and preparation was performed by affinity refinement with calmodulin sepharose (Amasham Biosciences, Inc.) from cell soluble fraction obtained by centrifugal operation via ammonium sulfate fraction of final concentration of 60%. Confirmation of expression was performed by Western blotting method using anti-CaMKII γ specific antibody, sc1541 (Santa Cruz, Inc.).
CaMKII γ inhibitory activity of test substances were measured in the same conditions as in Example 1 except human CaMKII γ prepared by the above procedure was used in place of CaMKII α derived from rat.

In assay [1] the test system is adjuvant-induced arthritis rats. In words: Combination effect on adjuvant-induced arthritis, joint destruction score by soft X-ray (Example 20). It counts as in vivo, rat. Here is the method: Combination effect for adjuvant-induced arthritic rats was examined in the same manner as in Example 17.
Euthanasia was carried out for all the rats by aspiration of high concentration carbon dioxide after the last administration. Both the hind paws were cut off at the middle point of […]. Both the hind paws were fixed with 10% neutral buffered formalin liquid. […] The degree of joint destruction was recorded with a score. Observed sites were three points of the tibia, calcaneum and tarsal bone, and the possible maximum score was 12.
1: Minimum destruction of joints and bones and new formation of cartilages
2: Mild destruction of joints and bones and new formation and light ossification of cartilages
3: Moderate destruction of joints and bones and ossification
4: Severe destruction and deformation of joints and bones and intense ossification

T1 sequence (P11275 whole entry): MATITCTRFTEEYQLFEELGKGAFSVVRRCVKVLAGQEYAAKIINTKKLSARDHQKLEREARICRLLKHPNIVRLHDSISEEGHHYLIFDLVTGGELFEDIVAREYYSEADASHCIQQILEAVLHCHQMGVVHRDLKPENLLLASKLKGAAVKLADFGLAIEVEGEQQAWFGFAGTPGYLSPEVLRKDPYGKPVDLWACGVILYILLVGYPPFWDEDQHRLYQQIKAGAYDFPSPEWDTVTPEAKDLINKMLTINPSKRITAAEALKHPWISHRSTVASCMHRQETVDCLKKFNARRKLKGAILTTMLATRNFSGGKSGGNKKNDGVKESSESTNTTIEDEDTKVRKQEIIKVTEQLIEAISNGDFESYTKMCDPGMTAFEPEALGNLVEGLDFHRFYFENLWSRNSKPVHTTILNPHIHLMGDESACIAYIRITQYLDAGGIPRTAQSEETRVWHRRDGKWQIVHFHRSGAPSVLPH

`C[C@@H](c1ccc(-c2ccccc2)c(F)c1)c1cc(/N=C(/N)N2CCOCC2)on1` [Compound (I), 3-[(1S)-1-(2-fluorobiphenyl-4-yl)ethyl]-5-{[amino(morpholin-4-yl)methylene]amino}isoxazole]: the “Inhibition rate (%)” value at CaMKIIα derived from rat (Concentration 0.1 μm) came out at 39%; on CaMKIIα derived from rat (Concentration 1 μm), 47%; on CaMKIIα derived from rat (Concentration 10 μm), 85%; in the assay on human CaMKII γ (Concentration 1 μm), 7%; in the assay on human CaMKII γ (Concentration 10 μm) it was 33%; in the assay with human CaMKII γ (Concentration 30 μm), 57%. In addition, the proliferation of fibroblasts result in the assay on L929 cells is “dose-dependently suppressed the proliferation of fibroblasts”. Moreover, the “degradation of IκBα” value in the assay with IκBα is “suppressed the degradation of IκBα”. Further, the “concentration with an effect of inhibiting the activity of CaMKII” value in the assay with human CaMKII γ was at least 10 µM. In assay [1] (Compound (I) 40 mg/kg and/or methotrexate 0.06 mg/kg, control score 3, maximum 12), the “joint destruction score of the left hind paw, representative individual which showed an average score in the group” value came to 1. In addition, in assay [1] (Compound (I) 40 mg/kg and/or methotrexate 0.06 mg/kg, control score 10, maximum 12), the “joint destruction score of the right hind paw, representative individual which showed an average score in the group” value was 5. Also, the “joint destruction of right and left hind paws” value is “dose-dependently and conspicuously enhanced joint destruction suppressing effect of methotrexate” in assay [1] (Compound (I) 20, 40, 80 mg/kg in combination with methotrexate 0.06 mg/kg, 17 days); “dose-dependently showed joint destruction suppressing effect” in assay [1] (only Compound (I) 20, 40, 80 mg/kg oral once a day 17 days).
On to `COc1ccc(S(=O)(=O)N(CCO)c2ccccc2CN(C)C/C=C/c2ccc(Cl)cc2)cc1` [KN-93, N-(2-[N-[4-chlorocinnamyl]-N-methylaminomethyl]phenyl)-N-(2-hydroxyethyl)-4-methoxybenzenesulfonamide, reference compound], for which the “Inhibition rate (%)” value on CaMKIIα derived from rat (Concentration 0.1 μm) is recorded as 25%; at CaMKIIα derived from rat (Concentration 1 μm), 58%; on CaMKIIα derived from rat (Concentration 10 μm), 77%; with human CaMKII γ (Concentration 1 μm), 27%; in the assay on human CaMKII γ (Concentration 10 μm), 101%; in the assay with human CaMKII γ (Concentration 30 μm), 107%. Besides, the proliferation of fibroblasts entry in the assay on L929 cells is reported as “dose-dependently suppressed the proliferation of fibroblasts”. The “degradation of IκBα” value in the assay on IκBα is “suppressed the degradation of IκBα”. Moreover, the “concentration with an effect of inhibiting the activity of CaMKII” value with human CaMKII γ was at least 1 µM.
